# Test results as given in US20230087118A1, “IMIDAZO[1,2-a][sequence] DERIVATIVES AND THEIR USE IN THE TREATMENT OF DISEASE” (priority 2019, published 2023).
# Counter-ions that a name gives are not always drawn. Like-named read-outs stand apart in the source and are kept apart here.
# Biological target: T1, IRAK4 (Homo sapiens, UniProt Q9NWZ3)
# T1 sequence (Q9NWZ3 1-460): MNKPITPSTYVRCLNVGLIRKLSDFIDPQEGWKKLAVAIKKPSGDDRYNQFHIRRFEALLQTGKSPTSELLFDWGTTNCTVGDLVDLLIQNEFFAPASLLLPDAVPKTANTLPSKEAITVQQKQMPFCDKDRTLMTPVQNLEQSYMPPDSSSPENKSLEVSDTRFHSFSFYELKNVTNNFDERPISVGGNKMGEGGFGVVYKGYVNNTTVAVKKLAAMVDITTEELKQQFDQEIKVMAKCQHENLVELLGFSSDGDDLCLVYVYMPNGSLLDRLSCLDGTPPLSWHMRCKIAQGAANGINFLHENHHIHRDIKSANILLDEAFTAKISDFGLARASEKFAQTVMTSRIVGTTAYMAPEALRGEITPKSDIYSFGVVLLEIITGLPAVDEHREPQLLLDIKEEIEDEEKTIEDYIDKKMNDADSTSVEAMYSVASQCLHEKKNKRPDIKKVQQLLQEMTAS
# Experiment: biochemical
# [1] = IRAK4 Biochemical Assay (1 mM ATP, 2 h) IC50 (μM), 1 mM ATP, 2 h, 100 pM IRAK4
Structure (SMILES),IC50,IC50 [1]
"CC(C)Oc1cc2nc(Cl)cn2cc1C(=O)Nc1cccc(C(F)F)n1 [Example 265, 2-Chloro-N-(6-(difluoromethyl)pyridin-2-yl)-7-isopropoxyimidazo[1,2-a]pyridine-6-carboxamide]",0.0067 µM,–
"CC(C)(C)c1cn2cc(C(=O)Nc3cnn4cccnc34)c(OC3CCC3)cc2n1 [Example 266, 2-(tert-Butyl)-7-cyclobutoxy-N-(pyrazolo[1,5-a]pyrimidin-3-yl)imidazo[1,2-a]pyridine-6-carboxamide trifluoroacetate]",–,0.0013 µM
"CC(C)(C)c1cn2cc(C(=O)Nc3cccc(C(F)F)n3)c(OC3CCC3)cc2n1 [Example 267, 2-(tert-Butyl)-7-cyclobutoxy-N-(6-(difluoromethyl)pyridin-2-yl)imidazo[1,2-a]pyridine-6-carboxamide]",0.002 µM,–
"CC(C)(C)c1cn2cc(C(=O)Nc3cccc(C(F)F)n3)c(OC3COC4(CC4)C3)cc2n1 (stereo not drawn) [Example 268, 7-((4-Oxaspiro[2.4]heptan-6-yl)oxy)-2-(tert-butyl)-N-(6-(difluoromethyl)pyridin-2-yl)imidazo[1,2-a]pyridine-6-carboxamide]",0.0083 µM,–
"CC(C)Oc1c(C(=O)Nc2cccc(C(F)F)n2)cn2cc(C34COC(CF)(C3)C4)nc2c1F [Example 269, N-(6-(Difluoromethyl)pyridin-2-yl)-8-fluoro-2-(1-(fluoromethyl)-2-oxabicyclo[2.1.1]hexan-4-yl)-7-isopropoxyimidazo[1,2-a]pyridine-6-carboxamide]",0.0012 µM,–
"Cc1cnc2c(NC(=O)c3cn4cc(C56COC(CF)(C5)C6)nc4c(F)c3OC(C)C)cnn2c1 [Example 270, 8-Fluoro-2-(1-(fluoromethyl)-2-oxabicyclo[2.1.1]hexan-4-yl)-7-isopropoxy-N-(6-methylpyrazolo[1,5-a]pyrimidin-3-yl)imidazo[1,2-a]pyridine-6-carboxamide]",0.0023 µM,–
"CCOc1nc(C(=O)Nc2cc(F)cnc2OC)cn2cc(C3CCCOC3)nc12 (stereo not drawn) [Example 271, 8-Ethoxy-N-(5-fluoro-2-methoxypyridin-3-yl)-2-(tetrahydro-2H-pyran-3-yl)imidazo[1,2-a]pyrazine-6-carboxamide]",0.0073 µM,–
"CCOc1nc(C(=O)Nc2cc(F)cn(C)c2=O)cn2cc(C3CCCOC3)nc12 (stereo not drawn) [Example 272, 8-Ethoxy-N-(5-fluoro-1-methyl-2-oxo-1,2-dihydropyridin-3-yl)-2-(tetrahydro-2H-pyran-3-yl)imidazo[1,2-a]pyrazine-6-carboxamide]",0.0098 µM,–
"CCOc1nc(C(=O)Nc2cccnc2OC)cn2cc(C3CCOC3)nc12 (stereo not drawn) [Example 273, 8-Ethoxy-N-(2-methoxypyridin-3-yl)-2-(tetrahydrofuran-3-yl)imidazo[1,2-a]pyrazine-6-carboxamide]",0.0047 µM,–
"CCOc1nc(C(=O)Nc2cccc(C(F)F)n2)cn2cc(C34CCC(C)(C3)OC4)nc12 (stereo not drawn) [Example 274, N-(6-(difluoromethyl)pyridin-2-yl)-8-ethoxy-2-(1-methyl-2-oxabicyclo[2.2.1]heptan-4-yl)imidazo[1,2-a]pyrazine-6-carboxamide]",0.0016 µM,–
"CCCOc1nc(C(=O)Nc2cccnc2OC)cn2cc(C34CCC(C)(C3)OC4)nc12 (stereo not drawn) [Example 275, N-(2-methoxypyridin-3-yl)-2-(1-methyl-2-oxabicyclo[2.2.1]heptan-4-yl)-8-propoxyimidazo[1,2-a]pyrazine-6-carboxamide trifluoroacetate]",–,0.0007 µM
"CCOc1nc(C(=O)Nc2cccnc2OC)cn2cc(C34CCC(C)(C3)OC4)nc12 (stereo not drawn) [Example 276, 8-Ethoxy-N-(2-methoxypyridin-3-yl)-2-(1-methyl-2-oxabicyclo[2.2.1]heptan-4-yl)imidazo[1,2-a]pyrazine-6-carboxamide trifluoroacetate]",–,0.0009 µM
"CCOc1nc(C(=O)Nc2cc(F)cn(C)c2=O)cn2cc(C34CCC(C)(C3)OC4)nc12 (stereo not drawn) [Example 277, 8-Ethoxy-N-(5-fluoro-1-methyl-2-oxo-1,2-dihydropyridin-3-yl)-2-(1-methyl-2-oxabicyclo[2.2.1]heptan-4-yl)imidazo[1,2-a]pyrazine-6-carboxamide trifluoroacetate]",–,0.0061 µM
"CCOc1nc(C(=O)Nc2cccc3ccnn23)cn2cc(C34CCC(C)(C3)OC4)nc12 (stereo not drawn) [Example 278, 8-Ethoxy-2-(1-methyl-2-oxabicyclo[2.2.1]heptan-4-yl)-N-(pyrazolo[1,5-a]pyridin-7-yl)imidazo[1,2-a]pyrazine-6-carboxamide trifluoroacetate]",–,0.0011 µM
"CCOc1nc(C(=O)Nc2cccnc2OC)cn2cc(C3CC3)nc12 [Example 279, 2-Cyclopropyl-8-ethoxy-N-(2-methoxypyridin-3-yl)imidazo[1,2-a]pyrazine-6-carboxamide trifluoroacetate]",–,0.0038 µM
"Cc1cnc2c(NC(=O)c3cn4cc(C5CC5)nc4cc3OC(C)C)cnn2c1 [Example 280, 2-Cyclopropyl-7-isopropoxy-N-(6-methylpyrazolo[1,5-a]pyrimidin-3-yl)imidazo[1,2-a]pyridine-6-carboxamide trifluoroacetate]",–,0.0019 µM
"Cn1ccc(NC(=O)c2cn3cc(C4CC4)nc3c(OC3CC3)n2)n1 [Example 281, 8-Cyclopropoxy-2-cyclopropyl-N-(1-methyl-1H-pyrazol-3-yl)imidazo[1,2-a]pyrazine-6-carboxamide]",0.0264 µM,–
"CCOc1nc(C(=O)Nc2ccn(CC3CC3)n2)cn2cc(C34CCC(C)(C3)OC4)nc12 (stereo not drawn) [Example 282, N-(1-(cyclopropylmethyl)-1H-pyrazol-3-yl)-8-ethoxy-2-(1-methyl-2-oxabicyclo[2.2.1]heptan-4-yl)imidazo[1,2-a]pyrazine-6-carboxamide]",0.0087 µM,–
"COc1ncccc1NC(=O)c1cn2cc(C3CC3)nc2nc1OC(C)C [Example 283, 2-Cyclopropyl-7-isopropoxy-N-(2-methoxypyridin-3-yl)imidazo[1,2-a]pyrimidine-6-carboxamide]",0.0025 µM,–
"Cn1ccc(NC(=O)c2cn3cc(C45COC(C)(C4)C5)nc3nc2OC2CCCC2)n1 [Example 285, 7-(Cyclopentyloxy)-N-(1-methyl-1H-pyrazol-3-yl)-2-(1-methyl-2-oxabicyclo[2.1.1]hexan-4-yl)imidazo[1,2-a]pyrimidine-6-carboxamide]",0.006 µM,–
"COCc1cc2nc(C34COC(C)(C3)C4)cn2cc1C(=O)Nc1ccn(C)n1 [Example 286, 7-(Methoxymethyl)-N-(1-methyl-1H-pyrazol-3-yl)-2-(1-methyl-2-oxabicyclo[2.1.1]hexan-4-yl)imidazo[1,2-a]pyridine-6-carboxamide]",5.98 µM,–

# Results, then the compound that gave them:
IC50,IC50 [1],Structure (SMILES)
0.0005 µM,–,"Cc1cccc(NC(=O)c2cn3cc(C45COC(C)(C4)C5)nc3cc2OC(C)C)n1 [Example 259, 7-Isopropoxy-2-(1-methyl-2-oxabicyclo[2.1.1]hexan-4-yl)-N-(6-methylpyridin-2-yl)imidazo[1,2-a]pyridine-6-carboxamide]"
–,0.0005 µM,"CC(C)Oc1cc2nc(C34COC(C)(C3)C4)cn2cc1C(=O)Nc1cccc(N(C)C)n1 [Example 260, N-(6-(dimethylamino)pyridin-2-yl)-7-isopropoxy-2-(1-methyl-2-oxabicyclo[2.1.1]hexan-4-yl)imidazo[1,2-a]pyridine-6-carboxamide 2,2,2-trifluoroacetate]"
–,0.0047 µM,"CC(C)Oc1cc2nc(C34COC(C)(C3)C4)cn2cc1C(=O)Nc1cncn(C)c1=O [Example 261, 7-Isopropoxy-N-(1-methyl-6-oxo-1,6-dihydropyrimidin-5-yl)-2-(1-methyl-2-oxabicyclo[2.1.1]hexan-4-yl)imidazo[1,2-a]pyridine-6-carboxamide 2,2,2-trifluoroacetate]"
0.028 µM,–,"CC(C)Oc1cc2nc(C34COC(C)(C3)C4)cn2cc1C(=O)Nc1cc(C#N)cn(C)c1=O [Example 262, N-(5-cyano-1-methyl-2-oxo-1,2-dihydropyridin-3-yl)-7-isopropoxy-2-(1-methyl-2-oxabicyclo[2.1.1]hexan-4-yl)imidazo[1,2-a]pyridine-6-carboxamide]"
0.0002 µM,–,"Cc1ccn2ncc(NC(=O)c3cn4cc(C56COC(C)(C5)C6)nc4cc3OC(C)C)c2n1 [Example 263, 7-Isopropoxy-2-(1-methyl-2-oxabicyclo[2.1.1]hexan-4-yl)-N-(5-methylpyrazolo[1,5-a]pyrimidin-3-yl)imidazo[1,2-a]pyridine-6-carboxamide]"
0.0002 µM,–,"CC(C)Oc1cc2nc(C34COC(C)(C3)C4)cn2cc1C(=O)Nc1cnn2ccc(Cl)nc12 [Example 264, N-(5-chloropyrazolo[1,5-a]pyrimidin-3-yl)-7-isopropoxy-2-(1-methyl-2-oxabicyclo[2.1.1]hexan-4-yl)imidazo[1,2-a]pyridine-6-carboxamide]"
–,0.0056 µM,"CC(C)Oc1cc2nc(C34CCC(C)(C3)OC4)cn2cc1C(=O)Nc1cc(F)n(C)n1 (stereo not drawn) [Example 284, N-(5-fluoro-1-methyl-1H-pyrazol-3-yl)-7-isopropoxy-2-(1-methyl-2-oxabicyclo[2.2.1]heptan-4-yl)imidazo[1,2-a]pyridine-6-carboxamide trifluoroacetate]"
7.14 µM,–,"COCc1cc2nc(C34COC(C)(C3)C4)cn2cc1C(=O)Nc1cccn(C)c1=O [Example 287, 7-(Methoxymethyl)-N-(1-methyl-2-oxo-1,2-dihydropyridin-3-yl)-2-(1-methyl-2-oxabicyclo[2.1.1]hexan-4-yl)imidazo[1,2-a]pyridine-6-carboxamide]"
1.23 µM,–,"COCc1cc2nc(C34COC(C)(C3)C4)cn2cc1C(=O)Nc1cnn2cc(C)cnc12 [Example 288, 7-(Methoxymethyl)-2-(1-methyl-2-oxabicyclo[2.1.1]hexan-4-yl)-N-(6-methylpyrazolo[1,5-a]pyrimidin-3-yl)imidazo[1,2-a]pyridine-6-carboxamide]"
